From US10077446B2, “Glucan-encapsulated siRNA for treating type 2 diabetes mellitus” (The United States of America, as represented by THE …, priority 2013, dated 2018) come the findings set out here.

The subject of assay [1] is MIN6 insulinoma cells. As to the kind of experiment: Cytokine, apoptotic gene, insulin and CB1R expression in MIN6 insulinoma cells. In kind it is cell-based, mouse. On the procedure: (§1) Mouse RAW264.7 macrophages (ATCC, Manassas, Va.) were cultured as previously described (Liu, et al. 2003 J Biol Chem 278:45034-45039) and were either treated during 4 hours with various concentrations of AEA (0.1, 0.5, 1, and 10 μM) and/or JD5037 (100 nM) or treated with 30 ng/mL of IL-1β (Abcam Ab9723). Mouse MIN6 insulinoma cells were a gift from NIDDK and were cultured in low glucose DMEM (Gibco 11885) supplemented with 15% FBS (BenchMark 100-006) and 1% antibiotic antimycotic cocktail (Invitrogen 15240-096). Cells were either treated during 4 hours with various concentrations of AEA (0.5, 1 and 5 μM) or treated with 30 ng/mL of IL-1β (Abcam Ab9723).
(§2) For both cell types, medium was collected and immediately frozen in liquid nitrogen. Cells were washed twice in ice-cold sterile PBS before harvesting. EC (endocannabinoid) levels were determined as previously 3, secretion of IL-1β, IL-18, TNF-α and MCP-1 in the medium were determined using ELISA kits (Biosensis BEK-2151-2P, Uscn Life Science & Technology Company E90064Mu, Biosensis BEK-2102-2P, Uscn Life Science & Technology Company E90087Mu, respectively).
MIN6 cells were treated either with vehicle, IL-1β (30 ng/mL), IL1R antagonist (10 ng/mL) for 3 hours or pre-treated 1 h with IL1R antagonist (10 ng/mL) followed by 3 h incubation with IL-1β (30 ng/mL). […] Blot quantification was performed using the gel analysis options of image J software.
(§3) Total mRNA from the liver, pancreas and kidney were extracted with Trizol (Invitrogen), while total mRNA from cells was extracted using RNEASY™ Mini Kit (Qiagen). All extractions were followed by DNase I treatment (Invitrogen). Total mRNA was reverse-transcribed using the ISCRIPT™ cDNA kit (Bio-Rad). Real-time PCR was performed as described previously (Jourdan, et al. 2010 Diabetes 59:926-934) in a 96-well plate using a STEPONEPLUS™ real time PCR system (Applied Biosystems). QUANTITECT™ Primer Assays were used to detect gene expression (Table 3, which lists the primers used for rat and mice (tissue)). Expression of the gene of interest is reported as a relative value comparing it to the geometric average of 18S, L19, L38 and TATA box binding protein expression.

Assay [2] concerns RAW264.7 macrophages. The assay can be described thus: Proinflammatory signaling in cultured RAW264.7 macrophages. In kind it is cell-based, mouse. The note with it: 4 h. On the procedure: as §1, §2, §3

On to IL-1β: interleukin-1β (Abcam Ab9723), for which the “maximally effective concentration for reducing insulin gene expression” value in assay [1] was 30 ng/mL. Also, in assay [1] (30 ng/mL IL-1β), the “CB1R mRNA and protein” value is reported as “drastically reduced”; the “anti-apoptotic genes Bcl-2 and Bcl-xl” value was “drastically suppressed”; the “pro-apoptotic genes Bak and Bax” value is “markedly induced”.
In the case of “IL-1R antagonist: IL-1 receptor antagonist used at 10 ng/mL in MIN6 cells”, the “IL-1β-induced reduction of CB1R mRNA and protein” value in assay [1] (IL-1R antagonist 10 ng/mL) was “blocked”.
For `CCCCC/C=C\C/C=C\C/C=C\C/C=C\CCCC(=O)NCCO` [anandamide], in assay [2] (RAW264.7 cells), the “concentration at which peak changes in cytokine secretion were observed” value was found to be 0.5 µM; the “secretion of IL-1β, TNF-α, and MCP-1” value is “markedly increased”. In assay [2] (RAW264.7 macrophages), the CB2R expression entry is listed as “without affecting”; the “expression of Nlrp3 and caspase-1” value was “robustly increased”. In assay [1], the “maximally effective concentration for reducing insulin gene expression” value was 0.5 µM. In assay [1] (0.5 μM anandamide), the “pro- and anti-apoptotic gene expression” value is “little or no effect”. In addition, the “levels of IL-1β, TNF-α, and MCP-1 in the medium” value in assay [1] (4 h) was “did not affect”.
